Results reported in US11147875B2, “Compositions, combinations and related methods for photoimmunotherapy” (priority 2015, dated 2021).
Where two headings read alike, the source gives them in different places.

Columns and labels:
[1] = cited from earlier work
[2] = system: A431 cells; assay: EGF-IRDye 700DX light-dependent killing; type: cell-based; conditions: for light-dependent killing: 24 hours
Procedure: Photo-activated EGF-IR700 cell killing was assessed in A431 cells. A431 cells were seeded at 5000 cells per well in 96 well white clear bottom dishes one day prior to the experiment. The following day, the A431 cells were washed three times with EMEM supplemented with 1% Penicillin/Streptomycin (serum free media). The A431 cells were then washed one time with serum free media, then incubated with serum free media containing 1 μg/mL of EGF-IRDye 700DX for one hour at 4° C. or serum free media only. […] The cells were then washed one time with serum free media.
To induce IR700-dependent killing, the cells were then illuminated with a 690 nm laser with 32 J/cm^2 of light or protected from light (“no light”). Cell death was evaluated as described in Example 6 using CellTox Green. The normalized percentage of dead cells was calculated by subtracting all wells by the percentage of dead cells from the no light serum free media only control, dividing by EGF-IRDye 700DX at 32 J/cm^2 minus the no light serum free media only control, and multiplied 100.
The effect of EGF-IRDye 700DX pre-exposure to white light versus green light on photo-activated cell killing was also evaluated in A431 cells. EGF-IRDye 700DX was pre-exposed to different types of light and the effect of light treatment on photo-activated killing activity was evaluated. Five microliters of EGF-IRDye 700DX conjugate (DAR 2) was added per clear HPLC vial at a EGF-IRDye 700DX concentration of 1.14 mg/mL. The following conditions were tested: (1) the antibody-IRDye 700DX conjugate stored at 4° C. protected from light (“4° C.”, used as the control); (2) antibody-IRDye 700DX conjugate placed in a clear glass HPLC tube under a Halogen lamp at 2500 lux for 24 hrs (“white light”); (3) antibody-IRDye 700DX conjugate placed in a clear glass HPLC tube wrapped in aluminum foil to protect from light exposure under Halogen lamp at 2500 lux for 24 hrs (“no light”), used as a control for thermal heating effects on the formation of aggregates); and (4) antibody-IRDye 700DX conjugate placed in a clear glass HPLC tube and exposed to green LED lamp at 2500 lux for 24 hrs (“green light”).
To assess cell killing activity, A431 cells were washed two times with serum free media, and incubated in serum free media alone for one hour at 4° C. The cells were then washed one time with serum free media and incubated with serum free media alone or serum free media containing 1 μg/mL of EGF-IRDye 700DX (“no light”), serum free media containing 1 μg/mL of EGF-IRDye 700DX pre-exposed to white light (“2500 Lux White light”), or serum free media containing 1 μg/mL EGF-IRDye 700DX pre-exposed to green light for one hour at 4° C. (“2500 Lux Green light”). The cells were then washed one time with serum free media.
To induce cell killing, the cells were either protected from light (light dose 0 J/cm^2) or were illuminated with a 690 nm laser with different light dosimetries (8 J/cm^2, 32 J/cm^2 or 64 J/cm^2).

[3] = system: BxPC3 pancreatic cancer cells; assay: In vitro PIT with panitumumab conjugates; type: cell-based; conditions: 10 μg/mL; for killing: 8 J/cm^2 at 690 nm
Procedure: The two conjugates were tested for efficiency in killing cells in an in vitro PIT assay using the pancreatic cancer line BxPC3. BxPC3 were seeded into 96-well white-wall plates (4,000 cells/well) the day before the experiment. Antibody conjugates were added to cells at a concentration of 10 μg/mL and were incubated for 2 hours at 37° C. Light of 690 nm was applied by a diode at a constant power output of 50 mW/cm^2. The illumination time was modulated to achieve the fluences 4 J/cm^2, 8 J/cm^2 or 16 J/cm^2. As a control, a group of cells was not irradiated with light (0 J/cm^2). To monitor the progression of cell death after light treatment, the conjugate containing medium was replaced by fresh medium containing CellTox Green (Promega), a dye that reports cell death based on compromised cell membrane integrity. Time dependent increase in cell death was observed over 24 hours.

[4] = system: human iDCs; assay: DC activation after priming with PIT-killed FaDu cells and Poly I:C treatment; type: cell-based; conditions: 1 μg/mL overnight, DCs primed with FaDu cells PIT-killed with Cetuximab IRDye 700DX, vs no light controls
Procedure: FaDu cells grown in complete EMEM media were plated in 100 μL total volume per well in a 96 well tissue culture plate for adherence overnight. […] PIT cell killing was induced by illumination with a 690 nm laser light at a fluence of 12 J/cm^2. The controls represented wells corresponding to the groups not treated with light.
For co-culture, human iDCs (Astarte Biologics) from a healthy donor were directly added into the wells with PIT killed tumor cells and into control wells (non-PIT treated tumor cells). The co-cultures were then incubated for 48 hours at 37° C. in the CO2 incubator. The harvested DCs were then subjected to poly I:C treatment (1 μg/mL) for overnight. The cells were then detached using a non-enzymatic detachment solution.
The harvested cells from various treatment conditions were incubated with live/dead discrimination dye Zombie Green (BioLegend, 1:500) for 20 min at room temperature followed by washing with stain buffer. Cells were resuspended in stain buffer and human Fc blocking reagent (BD) was then added and cells were incubated for 20 min at room temperature. […]
Appropriate gating was performed while analyzing the data to exclude cell debris, and the data was analyzed with gating performed on live events. The results described below are based on median fluorescence intensity (MFI) data from each group which is plotted as fold increase over the no light controls.

[5] = in vivo, 400 mg/m2; cited from earlier work

In the case of Oc1cccc(-c2c3nc(c(-c4cccc(O)c4)c4ccc([nH]4)c(-c4cccc(O)c4)c4nc(c(-c5cccc(O)c5)c5ccc2[nH]5)CC4)C=C3)c1 [Foscan®, meta-tetrahydroxyphenylchlorin], the extinction coefficient ([1]; 652 nm) is given as 22000 M⁻¹ cm⁻¹.
In the case of C=Cc1c(C)c2cc3nc(c(CC(=O)N[C@@H](CC(=O)[O-])C(=O)[O-])c4[nH]c(cc5nc(cc1[nH]2)C(C)=C5CC)c(C)c4C(=O)[O-])[C@@H](CCC(=O)[O-])[C@@H]3C.[Na+].[Na+].[Na+].[Na+] [NPe6/Laserphyrin®, mono-L-aspartylchlorin e6], the extinction coefficient [1] is listed as 40000 M⁻¹ cm⁻¹.
For “EGF-IRDye 700DX: human recombinant epidermal growth factor (EGF) conjugated to IRDye 700DX (NSDSECPLSHDGYCLHDGVCMYIEALDKYACNCVVGYIGERCQYRDLKWWELR; Epidermal growth factor IRDye 700DX dye; UniProt P01133 971-1023, looked up)”, the cell killing ([2]; 1 μg/mL, 32 J/cm^2 vs no light) was “light-dependent killing”, the cell killing ([2]; cells pre-exposed to 100 μg/mL unconjugated cetuximab) was “blocked light-dependent cell killing” and the light-dependent killing ([2]; conjugate pre-exposed to green light, 2500 lux) was “exhibited light-dependent killing activity comparable”. For the same molecule, the light-dependent killing ([2]; conjugate pre-exposed to white light, 2500 lux) was “no longer exhibited light-dependent killing activity” and the light-dependent killing ([2]; conjugate protected from light under halogen lamp) was “exhibited light-dependent killing”.
For “Pan-IRDye 700DX-Alexa-488: panitumunab conjugated both to IRDye 700DX and Alexa Fluor 488”, the cell killing ([3]; 4 J/cm^2 at 690 nm) was “only marginally effective”, the killing [3] was 73% and the cell killing ([3]; 16 J/cm^2 at 690 nm) was “near complete cell killing”.
In the case of “Pan-IRDye 700DX: anti-human EGFR antibody drug panitumumab conjugated only with IRDye 700DX”, the cell killing ([3]; 4 J/cm^2 at 690 nm) is reported as “only marginally effective”, the killing [3] is reported as 74% and the cell killing ([3]; 16 J/cm^2 at 690 nm) is reported as “near complete cell killing”.
For Photofrin®, the extinction coefficient [1] is given as 1200 M⁻¹ cm⁻¹.
With Poly I:C the “CD80 and CD86 expression levels” value [4] was “increased CD80 and CD86 expression levels”.
In the case of “cetuximab: anti-EGFR antibody cetuximab (Erbitux), not conjugated”, the “AUC0-∞” value [5] is listed as 24,740 μg/mL*h.
